Here are results for 3 compounds from patent US20100143452A1, “POLYPHENOL CONTAINING COMPOSITIONS” (Universiteit Utrecht Holding B.V., priority 2006, published 2010).

A value given as a limit tells only on which side of the number the result lay.

In data set [1] the test system is B16 murine melanoma and C26 murine colon carcinoma. Put plainly: tumor growth in B16 or C26-tumor bearing mice. Particulars: i.v. 20 mg/kg, between day 7 and day 14, after a second injection at day 7. In kind it is in vivo. As for the experimental part: B16 murine melanoma and C26 murine colon carcinoma cells were cultured at 37° C. in a 5% CO2-containing humidified atmosphere in DMEM medium (Gibco, Breda, The Netherlands) containing 10% (v/v) fetal calf serum supplemented with 2 mM L-glutamine, 100 IU/ml penicillin, 100 microgram/ml streptomycin and 0.25 microgram/ml amphotericin B (Gibco). Male Balb/c and C57B1/6 mice (6-8 weeks of age) were obtained from Charles River, kept in standard housing with standard rodent chow and water available ad libitum, and a 12 h light/dark cycle. Experiments were performed according to national regulations and approved by the local animal experiments ethical committee. Mice received a single intravenous injection of an indicated dose of free caffeic acid or liposomal caffeic acid prepared in Example 1 at the time when the tumor became palpable. At 7 days after treatment, tumor size was measured and tumor volume calculated according to the equation V=0.52×a^2×b, wherein a is the smallest and b is the largest superficial diameter. […] Tumor size was measured regularly, and tumor volume was calculated as described above. For the statistical analysis, data were analysed by one-way ANOVA with Dunnett's post test using GraphPad InStat version 3.05 for Windows, GraphPad Software (San Diego, USA). […] Spearman rank correlation coefficient was calculated to identify dose-response. […]

Data set [2] relates to cells. The following applies: 80 micomoles of naringenin per liter, for 24 hours; cited from earlier work.
For data set [3] the following is noted: oral ingestion, best case scenario; cited from earlier work.
The conditions of data set [4]: dietary (ingested) polyphenols; cited from earlier work.

Turning to `O=C(O)/C=C/c1ccc(O)c(O)c1` [free caffeic acid, caffeic acid], the “effect on tumor volume” value in data set [1] is reported as “did not reduce tumor volume”.

For the compound `O=C1C[C@@H](c2ccc(O)cc2)Oc2cc(O)cc(O)c21` [naringenin], in data set [2], the “reduction of hydroxyl damage to the DNA” value is on record as 24%. Also, the “ingested amount absorbed in the human gastrointestinal tract” value in data set [3] was not above 15%.

Take `O=c1c(O)c(-c2ccc(O)c(O)c2)oc2cc(O)cc(O)c12` [quercetin]: the bioavailability in data set [4] is listed as 1-5%.
